Results published in patent publication EP4813980A1, “EP300/CBP REGULATOR, AND PREPARATION METHOD THEREFOR AND USE THEREOF” (Miracure Biotechnology Limited, priority 2023, dated 2025).
pIC50: −log10 of the molar value.

Key:
Experiment in all cases: Cell growth inhibition, CellTiter-Glo, 72 h
Type in all cases: cell-based
MM1S cells = conditions: Homo sapiens, MM1.S, 72 h culture, mean of N=2
Method: (§1) 22RV1, vCap, MM1S and OPM-2 cells were cultured in RPMI-1640 medium (10% fetal bovine serum and 100 units of penicillin/streptomycin dual-antibody per mL were added to RPMI-1640) in a cell incubator at 37°C with 5% CO2, respectively. Cells in logarithmic growth phase were seeded into 96-well cell culture plates at 5×10^3 cells/100 µL/well and cultured overnight. Active compounds dissolved in DMSO at different concentrations were added with a final concentration of 0.5% DMSO. 1% Tween 20 was used as positive control and 0.5% DMSO was used as negative control. After 72 h of culture, an equal volume of CellTiter-Glo was added to each well, mixed by shaking for 2 min, and left standing at room temperature for 10 min. […] signal values were read with a microplate reader. Data were analyzed and graphs were generated using Prism 7.0. The values shown are mean ± SEM (N=2). […] The formula for inhibition rate is as follows: % Inhibition = (Icompound−IZPE)/(IHPE−IZPE) × 100 [formula]
(§2) The X-axis is compound concentration (nM), and the Y-axis is % Inhibition.

22RV1 cells = conditions: Homo sapiens, 72 h culture, mean of N=2
Method: as §1, §2

OPM-2 cells = conditions: Homo sapiens, 72 h culture, mean of N=2
Method: as §1, §2

vCap cells = conditions: Homo sapiens, 72 h culture, mean of N=2
Method: as §1, §2

SMILES	pIC50 (22RV1 cells)	pIC50 (MM1S cells)	pIC50 (OPM-2 cells)	pIC50 (vCap cells)
CC(=O)N1Cc2cc(C3CCN(CCC4CCN(c5ccc6c(c5)CN(C5CCC(=O)NC5=O)C6=O)CC4)CC3)cc(N3CCCc4cc(-c5cnn(C)c5)c(C(F)F)cc43)c2C1 (stereo not shown) [Compound 2069]	9.42	9.44	–	–
CC(=O)N1Cc2cc(C3CCN(CC4CCN(c5ccc6c(c5)n(C)c(=O)n6C5CCC(=O)NC5=O)CC4)CC3)cc(N3CCCc4cc(-c5cnn(C)c5)c(C(F)F)cc43)c2C1 (stereo not shown) [Compound 2068]	10.22	10.15	10.40	10.15
C=CS(=O)(=O)N[C@H]1CC[C@@H](c2cc3c(c(N4CCCc5cc(-c6cnn(C)c6)c(C(F)F)cc54)c2)CN(C(=O)NC)CC3)CC1 [Compound 1366, 8-(7-(difluoromethyl)-6-(1-methyl-1H-pyrazol-4-yl)-3,4-dihydroquinolin-1(2H)-yl)-N-methyl-6-((1s,4s)-4-(vinylsulfonamido)cyclohexyl)-3,4-dihydroisoquinoline-2(1H)-carboxamide]	6.88	7.62	8.30	7.55
CC(=O)N1Cc2cc([C@H]3CC[C@H](NC(=O)/C=C/CN(C)C)CC3)cc(N3CCCc4cc(-c5cnn(C)c5)c(C(F)F)cc43)c2C1 [Compound 1356]	5.37	6.33	7.28	–
CC(=O)N1Cc2cc(C3CCN(CC4CCN(c5ccc6c(c5)C(=O)N(C5CCC(=O)NC5=O)C6=O)CC4)CC3)cc(N3CCCc4cc(-c5cnn(C)c5)c(C(F)F)cc43)c2C1 (stereo not shown) [Compound 2085]	8.40	8.70	8.70	8.70
CC(=O)N1Cc2cc(C3CCN(CC4CCN(CCNc5ccc6c(c5)CN(C5CCC(=O)NC5=O)C6=O)CC4)CC3)cc(N3CCCc4cc(-c5cnn(C)c5)c(C(F)F)cc43)c2C1 (stereo not shown) [Compound 2062]	9.62	10.40	–	10.22
CC(=O)N1Cc2cc(C3CCN(CC4CCN(CCOc5cccc6c5CN(C5CCC(=O)NC5=O)C6=O)CC4)CC3)cc(N3CCCc4cc(-c5cnn(C)c5)c(C(F)F)cc43)c2C1 (stereo not shown) [Compound 2054]	9.08	9.48	–	9.59
CC(=O)N1Cc2cc(C3CCN(CCN4CCC(COc5ccc6c(c5)CN(C5CCC(=O)NC5=O)C6=O)CC4)CC3)cc(N3CCCc4cc(-c5cnn(C)c5)c(C(F)F)cc43)c2C1 (stereo not shown) [Compound 2071]	9.30	9.51	–	–
CC(=O)N1Cc2cc(C3CCN(CCN4CCC(CNc5ccc6c(c5)CN(C5CCC(=O)NC5=O)C6=O)CC4)CC3)cc(N3CCCc4cc(-c5cnn(C)c5)c(C(F)F)cc43)c2C1 (stereo not shown) [Compound 2063]	9.48	9.55	–	–
CNC(=O)N1CCc2cc(C3CCN(CC4CCN(CCOc5cccc6c5CN(C5CCC(=O)NC5=O)C6=O)CC4)CC3)cc(N3CCCc4cc(-c5cnn(C)c5)c(C(F)F)cc43)c2C1 (stereo not shown) [Compound 2065]	9.39	9.55	–	–
CNC(=O)N1CCc2cc(C3CCN(Cc4ccc(CCOc5cccc6c5CN(C5CCC(=O)NC5=O)C6=O)cc4)CC3)cc(N3CCCc4cc(-c5cnn(C)c5)c(C(F)F)cc43)c2C1 (stereo not shown) [Compound 2012]	9.21	–	–	8.64
CC(=O)N1Cc2cc(C3CCN(CCN4CCN(c5ccc6c(c5)CN(C5CCC(=O)NC5=O)C6=O)CC4)CC3)cc(N3CCCc4cc(-c5cnn(C)c5)c(C(F)F)cc43)c2C1 (stereo not shown) [Compound 2070]	9.38	9.47	–	–

The next lines start with results.

pIC50 (22RV1 cells)	SMILES	pIC50 (MM1S cells)	pIC50 (OPM-2 cells)	pIC50 (vCap cells)
6.26	CC#CC(=O)N1CCC(c2cc3c(c(N4CCCc5cc(-c6cnn(C)c6)c(C(F)F)cc54)c2)CN(C(C)=O)C3)CC1 [Compound 1359]	–	7.82	–
6.30	CNC(=O)N1CCc2c(c(N3CCCc4cc(-c5cnn(C)c5)c(C(F)F)cc43)nn2[C@H]2CC[C@H](N3C(=O)C=CC3=O)CC2)C1 [Compound 1383, 3-(7-(difluoromethyl)-6-(1-methyl-1H-pyrazol-4-yl)-3,4-dihydroquinolin-1(2H)-yl)-1-((1r,4r)-4-(2,5-dioxo-2,5-dihydro-1H-pyrrol-1-yl)cyclohexyl)-N-methyl-1,4,6,7-tetrahydro-5H-pyrazolo[4,3-c]pyridine-5-carboxamide]	6.91	7.20	6.97
7.80	C=CS(=O)(=O)N[C@H]1CC[C@@H](n2nc(N3CCCc4cc(-c5cnn(C)c5)c(C(F)F)cc43)c3c2CCN(C(=O)NC)C3)CC1 [Compound 1375, 3-(7-(difluoromethyl)-6-(1-methyl-1H-pyrazol-4-yl)-3,4-dihydroquinolin-1(2H)-yl)-N-methyl-1-((1s,4s)-4-(vinylsulfonamido)cyclohexyl)-1,4,6,7-tetrahydro-5H-pyrazolo[4,3-c]pyridine-5-carboxamide]	8.70	9.00	8.70
5.31	CC(=O)N1Cc2cc([C@H]3CC[C@@H](NC(=O)/C=C/CN(C)C)CC3)cc(N3CCCc4cc(-c5cnn(C)c5)c(C(F)F)cc43)c2C1 [Compound 1358]	6.22	7.41	–
5.86	C=CS(=O)(=O)N1CCC(c2cc3c(c(N4CCCc5cc(-c6cnn(C)c6)c(C(F)F)cc54)c2)CN(C(C)=O)CC3)CC1 [Compound 1368]	–	6.77	–
6.68	C=CS(=O)(=O)N1CCC(n2c([C@@H]3CCCC(=O)N3c3ccc(F)c(F)c3)nc3cc(-c4c(C)noc4C)ccc32)CC1 [Compound 1373, (S)-1-(3,4-difluorophenyl)-6-(5-(3,5-dimethylisoxazol-4-yl)-1-(1-(vinylsulfonyl)piperidin-4-yl)-1H-benzo[d]imidazol-2-yl)piperidin-2-one]	7.36	7.92	7.29
< 5.00	CC(=O)N1Cc2cc(C3CCOCC3)cc(-c3cccc4cc(-c5ccc(C(=O)N6CCC(Nc7cccc8c7C(=O)N(C7CCC(=O)NC7=O)C8=O)CC6)nc5)ncc34)c2C1 (stereo not shown) [Compound 2074, 4-((1-(5-(8-(2-acetyl-6-(tetrahydro-2H-pyran-4-yl)isoindolin-4-yl)isoquinolin-3-yl)pyridinecarbonyl)piperidin-4-yl)amino)-2-(2,6-dioxopiperidin-3-yl)isoindoline-1,3-dione]	6.37	–	–
10.10	CNC(=O)N1CCc2cc(C3CCN(CCc4ccc(COc5cccc6c5CN(C5CCC(=O)NC5=O)C6=O)cc4)CC3)cc(N3CCCc4cc(-c5cnn(C)c5)c(C(F)F)cc43)c2C1 (stereo not shown) [Compound 2066, 8-(7-(difluoromethyl)-6-(1-methyl-1H-pyrazol-4-yl)-3,4-dihydroquinolin-1(2H)-yl)-6-(1-(4-(((2-(2,6-dioxopiperidin-3-yl)-1-oxoisoindolin-4-yl)oxy)methyl)phenylethyl)piperidin-4-yl)-N-methyl-3,4-dihydroisoquinoline-2(1H)-carboxamide]	9.64	–	–
10.52	CC(=O)n1cc2cc(C3CCN(C(=O)CCCCCCCNc4ccc5c(c4)n(C)c(=O)n5C4CCC(=O)NC4=O)CC3)cc(N3CCCc4cc(-c5cnn(C)c5)c(C(F)F)cc43)c2c1 (stereo not shown) [Compound 2004, 3-[5-[[8-[4-[2-acetyl-7-[7-(difluoromethyl)-6-(1-methylpyrazol-4-yl)-3,4-dihydro-2H-quinolin-1-yl]isoindol-5-yl]piperidin-1-yl]-8-oxooctyl]amino]-3-methyl-2-oxobenzoimidazol-1-yl]piperidine-2,6-dione]	–	–	9.92
8.74	CC(=O)n1cc2cc(C3CCN(C(=O)CN4CCC(C#Cc5cccc6c5n(C)c(=O)n6C5CCC(=O)NC5=O)CC4)CC3)cc(N3CCCc4cc(-c5cnn(C)c5)c(C(F)F)cc43)c2c1 (stereo not shown) [Compound 2048, 3-(4-((1-(2-(4-(2-acetyl-7-(7-(difluoromethyl)-6-(1-methyl-1H-pyrazol-4-yl)-3,4-dihydroquinolin-1(2H)-yl)isoindol-5-yl)piperidin-1-yl)-2-oxoethyl)piperidin-4-yl)ethynyl)-3-methyl-2-oxo-2,3-dihydro-1H-benzo[d]imidazol-1-yl)piperidine-2,6-dione]	–	–	8.73
9.80	CC(=O)N1Cc2cc(C3CCN(C(=O)CCCCC#Cc4ccc5c(c4)n(C)c(=O)n5C4CCC(=O)NC4=O)CC3)cc(N3CCCc4cc(-c5cnn(C)c5)c(C(F)F)cc43)c2C1 (stereo not shown) [Compound 2032, 3-{5-[7-(4-{2-acetyl-7-[7-(difluoromethyl)-6-(1-methylpyrazol-4-yl)-3,4-dihydro-2H-quinolin-1-yl]-1,3-dihydroisoindol-5-yl}piperidin-1-yl)-7-oxohept-1-yn-1-yl]-3-methyl-2-oxo-1,3-benzodiazol-1-yl}piperidine-2,6-dione]	–	–	9.96
5.47	C=C(F)C(=O)N1CCC(c2cc3c(c(N4CCCc5cc(-c6cnn(C)c6)c(C(F)F)cc54)c2)CN(C(C)=O)C3)CC1 [Compound 1365]	–	7.52	–
6.97	CC(=O)N1Cc2cc([C@H]3CC[C@@H](NC(=O)CCl)CC3)cc(N3CCCc4cc(-c5cnn(C)c5)c(C(F)F)cc43)c2C1 [Compound 1361]	8.70	9.00	–
